# Test results taken from PubChem BioAssay AID1963840 (Molecular Pharmacology Branch, DTP, NCI, 2024).
# Test system: 695427-040-R-J1-PDC complex spheroid viability
# Assay: Anticancer human tumor 695427-040-R-J1-PDC patient-derived colon adenocarcinoma cell line growth inhibition [POLQ]
# Conditions: for IC50: curve of first compound; for viability, T/C: stronger effect = lower value
# Method: Multicellular complex tumor spheroid response to Polymerase (POL) inhibitors (novobiocin, ART-558, RP6685) in combination with a variety of drugs and investigational agents in selected tumor cell lines
# The POL inhibitors (novobiocin, ART-558, and RP6685) were evaluated both individually and in combination with standard of care and investigational anticancer small molecules within a complex spheroid model of solid tumors. . Complex spheroids include a stromal component modeled by human endothelial cells (HUVEC) and fibroblasts modeled by human mesenchymal stem cells (MSCs). The concentration ranges selected for each drug and investigational agent were based upon clinically achievable concentrations if the clinical Cmax of the agent was known.
# Compounds. The drugs and investigational agents: novobiocin (NSC847541), ART-558 (NSC835418), RP-6685 (NSC848927), peposertib (NSC802822), ceralasertib (NSC780249), elimusertib (NSC800525), camonsertib (NSC841442), AZD-1390 (NSC803789), olaparib (NSC753686), talazoparib (NSC767125), rucaparib (NSC756644), sotorasib (NSC818433), MRTX-1133 (NSC836407), SN-38 (NSC673596), topotecan (NSC609699), epotoside (NSC141540), doxorubicin (NSC123127), gemcitabine (NSC613327), 5-fluorouracil (NSC19893), paclitaxel (NSC125973), vemurafenib (NSC761431), MSA-2 (NSC828583), SN-011 (NSC837082), adavosertib (NSC754352), prexasertib (NSC758257), carboplatin (NSC241240) and oxaliplatin (NSC266046), were obtained from the National Cancer Institute (NCI) Developmental Therapeutics Program Chemical Repository (21). The FDA-approved anticancer drug set is available from the Developmental Therapeutics Program at https://dtp.cancer.gov/organization/dscb/obtaining/. […] The stock solutions were prepared in dimethyl sulfoxide (DMSO, Sigma-Aldrich, St. Louis, MO, cat. D2650), except for the platinum compounds which were prepared in saline (Quality Biological, Gaithersburg, MD, cat. 114-055-101), at 800-fold the tested concentration and stored at -70 degrees C prior to their use. All drugs and investigational agents were tested over a range starting from a high concentration at or near the clinical Cmax and decreasing in half-log increments. If the clinical Cmax for an agent had not been determined, the highest concentration tested was 10 microM, except for SN-38, which was tested at a high concentration of 1 microM.
# Cell Culture. All cells were maintained in an incubator at 37 degrees C and 5% CO2 with 95% humidity. The PDC lines were cultured according to standard operating procedures established by the NCI PDMR (https://pdmr.cancer.gov). Table 3 of the manuscript, lists the cell lines along with the number of the three cell types plated to form the mct-spheroids and media for tumor cell growth. After thawing, all PDC lines, except 997537-175-T-J1-PDC and 415267-285-R-J2-PDC, were cultured in Matrigel-coated flasks prepared with a working solution of 1X Ham's F-12 nutrient mix, without supplementation (Thermo Fisher Scientific, cat. 11765054), 100 U/mL penicillin-streptomycin (Thermo Fisher Scientific, cat. 15140122), and 2.5% Matrigel (Corning Inc., Corning, NY, cat. 354248) for the first three passages. The two PDC lines 997537-175-T-J1-PDC and 415267-285-R-J2-PDC were cultured on uncoated flasks. The 857933-349-R-J2-PDC line was cultured in 6C/Colon 1B media containing advanced DMEM/F-12 (Thermo Fisher Scientific, cat. 12634028), 10 mM HEPES (Thermo Fisher Scientific, cat. 15630080), 1X GlutaMAX supplement (Thermo Fisher Scientific, cat. 35050061), 0.1 mg/mL primocin (InvivoGen, San Diego, CA, cat. ant-pm-2), 10% defined fetal bovine serum, heat inactivated (HyClone Laboratories Inc., Logan, UT, cat. SH30070.03HI), 50% L-WRN conditioned media (ATCC, cat. CRL-3276), 1.25 mM N-Acetyl-L-cysteine (Sigma-Aldrich, cat. A9165), 10 mM nicotinamide (Sigma-Aldrich, cat. N0636), 1X B-27 supplement (Thermo Fisher Scientific, cat. 17504044), 1X N-2 supplement (Thermo Fisher Scientific, cat. […]
# 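Further: spheroids exposed to compounds for seven days.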
# 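Wherever viability, T/C is given: 100% = DMSO vehicle control viability.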
smiles,measurement,setting,value
CC(=O)O[C@H]1C(=O)[C@@]2(C)[C@H]([C@H](OC(=O)c3ccccc3)[C@]3(O)C[C@H](OC(=O)[C@H](O)[C@@H](NC(=O)c4ccccc4)c4ccccc4)C(C)=C1C3(C)C)[C@]1(OC(C)=O)CO[C@@H]1C[C@@H]2O + Nc1ccc(C#CCN(C(=O)Cc2ncc(C(F)(F)F)cc2C(F)(F)F)c2ccc(F)cc2)nn1,IC50,second compound 0.0316 µM,> 3 µM
same,IC50,second compound 0.1 µM,> 3 µM
same,IC50,second compound 0.316 µM,> 3 µM
same,IC50,second compound 1 µM,> 3 µM
same,IC50,second compound 3.16 µM,> 3 µM
same,IC50,second compound 10 µM,> 3 µM
same,"viability, T/C","second compound 0.0316 µM, first compound 0.00949 µM",98.2%
same,"viability, T/C","second compound 0.0316 µM, first compound 0.03 µM",93.4%
same,"viability, T/C","second compound 0.0316 µM, first compound 0.0949 µM",93.3%
same,"viability, T/C","second compound 0.0316 µM, first compound 0.3 µM",97.1%
same,"viability, T/C","second compound 0.0316 µM, first compound 0.949 µM",97.9%
same,"viability, T/C","second compound 0.0316 µM, first compound 3 µM",81.2%
same,"viability, T/C","second compound 0.1 µM, first compound 0.00949 µM",99.9%
same,"viability, T/C","second compound 0.1 µM, first compound 0.03 µM",99.6%
same,"viability, T/C","second compound 0.1 µM, first compound 0.0949 µM",91.8%
same,"viability, T/C","second compound 0.1 µM, first compound 0.3 µM",91.5%
same,"viability, T/C","second compound 0.1 µM, first compound 0.949 µM",89.5%
same,"viability, T/C","second compound 0.1 µM, first compound 3 µM",79.7%
same,"viability, T/C","second compound 0.316 µM, first compound 0.00949 µM",108%
same,"viability, T/C","second compound 0.316 µM, first compound 0.03 µM",101%
same,"viability, T/C","second compound 0.316 µM, first compound 0.0949 µM",88.4%
same,"viability, T/C","second compound 0.316 µM, first compound 0.3 µM",91.6%
same,"viability, T/C","second compound 0.316 µM, first compound 0.949 µM",88.9%
same,"viability, T/C","second compound 0.316 µM, first compound 3 µM",90.3%
same,"viability, T/C","second compound 1 µM, first compound 0.00949 µM",102%
same,"viability, T/C","second compound 1 µM, first compound 0.03 µM",93.3%
same,"viability, T/C","second compound 1 µM, first compound 0.0949 µM",102%
same,"viability, T/C","second compound 1 µM, first compound 0.3 µM",99.3%
same,"viability, T/C","second compound 1 µM, first compound 0.949 µM",90.9%
same,"viability, T/C","second compound 1 µM, first compound 3 µM",78.8%
same,"viability, T/C","second compound 3.16 µM, first compound 0.00949 µM",106%
same,"viability, T/C","second compound 3.16 µM, first compound 0.03 µM",84.7%
same,"viability, T/C","second compound 3.16 µM, first compound 0.0949 µM",95.1%
same,"viability, T/C","second compound 3.16 µM, first compound 0.3 µM",90.5%
same,"viability, T/C","second compound 3.16 µM, first compound 0.949 µM",88.2%
same,"viability, T/C","second compound 3.16 µM, first compound 3 µM",86.8%
same,"viability, T/C","second compound 10 µM, first compound 0.00949 µM",92.7%
same,"viability, T/C","second compound 10 µM, first compound 0.03 µM",82.7%
same,"viability, T/C","second compound 10 µM, first compound 0.0949 µM",86.7%
same,"viability, T/C","second compound 10 µM, first compound 0.3 µM",91.2%
same,"viability, T/C","second compound 10 µM, first compound 0.949 µM",90.2%
same,"viability, T/C","second compound 10 µM, first compound 3 µM",86.4%
CC[C@@]1(O)C(=O)OCc2c1cc1n(c2=O)Cc2cc3c(CN(C)C)c(O)ccc3nc2-1 + Nc1ccc(C#CCN(C(=O)Cc2ncc(C(F)(F)F)cc2C(F)(F)F)c2ccc(F)cc2)nn1,IC50,second compound 0.0316 µM,> 0.1 µM
same,IC50,second compound 0.1 µM,> 0.1 µM
same,IC50,second compound 0.316 µM,> 0.1 µM
same,IC50,second compound 1 µM,> 0.1 µM
same,IC50,second compound 3.16 µM,> 0.1 µM
same,IC50,second compound 10 µM,> 0.1 µM
same,"viability, T/C","second compound 0.0316 µM, first compound 0.000316 µM",110%
same,"viability, T/C","second compound 0.0316 µM, first compound 0.001 µM",111%
same,"viability, T/C","second compound 0.0316 µM, first compound 0.00316 µM",102%
same,"viability, T/C","second compound 0.0316 µM, first compound 0.01 µM",102%
same,"viability, T/C","second compound 0.0316 µM, first compound 0.0316 µM",115%
same,"viability, T/C","second compound 0.0316 µM, first compound 0.1 µM",109%
same,"viability, T/C","second compound 0.1 µM, first compound 0.000316 µM",114%
same,"viability, T/C","second compound 0.1 µM, first compound 0.001 µM",105%
same,"viability, T/C","second compound 0.1 µM, first compound 0.00316 µM",104%
same,"viability, T/C","second compound 0.1 µM, first compound 0.01 µM",100%
same,"viability, T/C","second compound 0.1 µM, first compound 0.0316 µM",107%
same,"viability, T/C","second compound 0.1 µM, first compound 0.1 µM",103%
same,"viability, T/C","second compound 0.316 µM, first compound 0.000316 µM",109%
same,"viability, T/C","second compound 0.316 µM, first compound 0.001 µM",102%
same,"viability, T/C","second compound 0.316 µM, first compound 0.00316 µM",108%
same,"viability, T/C","second compound 0.316 µM, first compound 0.01 µM",97.7%
same,"viability, T/C","second compound 0.316 µM, first compound 0.0316 µM",108%
same,"viability, T/C","second compound 0.316 µM, first compound 0.1 µM",101%
same,"viability, T/C","second compound 1 µM, first compound 0.000316 µM",100%
same,"viability, T/C","second compound 1 µM, first compound 0.001 µM",97.8%
same,"viability, T/C","second compound 1 µM, first compound 0.00316 µM",105%
same,"viability, T/C","second compound 1 µM, first compound 0.01 µM",109%
same,"viability, T/C","second compound 1 µM, first compound 0.0316 µM",110%
same,"viability, T/C","second compound 1 µM, first compound 0.1 µM",103%
same,"viability, T/C","second compound 3.16 µM, first compound 0.000316 µM",107%
same,"viability, T/C","second compound 3.16 µM, first compound 0.001 µM",111%
same,"viability, T/C","second compound 3.16 µM, first compound 0.00316 µM",102%
same,"viability, T/C","second compound 3.16 µM, first compound 0.01 µM",107%
same,"viability, T/C","second compound 3.16 µM, first compound 0.0316 µM",114%
same,"viability, T/C","second compound 3.16 µM, first compound 0.1 µM",103%
same,"viability, T/C","second compound 10 µM, first compound 0.000316 µM",99.5%
same,"viability, T/C","second compound 10 µM, first compound 0.001 µM",98.3%
same,"viability, T/C","second compound 10 µM, first compound 0.00316 µM",103%
same,"viability, T/C","second compound 10 µM, first compound 0.01 µM",89.4%
same,"viability, T/C","second compound 10 µM, first compound 0.0316 µM",95.3%
same,"viability, T/C","second compound 10 µM, first compound 0.1 µM",93.9%
